Counter-ions that a name gives are not always drawn.
Target: T1, human CCR5 (Homo sapiens, UniProt P51681)
T1 construct: expressed in transfected cells; host or cells: CHO-dhfr(-) cells stably transfected with plasmid pEF-BOS-bsr/hCCR5
Assay: Inhibition test on the binding of RANTES to CCR5 (RANTES-induced transient increase of Ca ion)
Type: cell-based
Conditions: human RANTES 10 nM; CCR5/CHO cell; Ca2+ transient increase
Procedure: (1) Isolation of Human CCR5 Gene
Human placental cDNA was prepared using Marathon cDNA amplification kit (Clontech). PCR primers hCCR5Xbal-F1:
Using the human placental cDNA as the template and using Ex Taq (Takara), PCR reaction (2 minutes at 95° C.→(30 seconds at 95° C., 45 seconds at 60° C., 1 minute at 72° C.)×35 times) was carried out. The thus amplified PCR product was subjected to a 1% agarose gel electrophoresis, purified using QIAquick Gel Extraction Kit (QUIAGEN) and then digested with a restriction enzyme XbaI. The digested fragments were ligated to an expression vector pEF-BOS-bsr using DNA Ligation Kit Ver. 2 (Takara) and transformed into Escherichia coli DH5a. […]
The thus established human CCR5 stably over-expressing CHO cell (CCR5/CHO cell) was suspended in Ham's F-12 medium containing FBS (10%) and dispensed in […] portions into a 96 well plate. […] Transient increase in the intracellular Ca^2+ concentration induced by the human RANTES was measured using a Ca^2+ detector for 96 well use (Hamamatsu Photonics), and inhibition ratio (%) of the test compound was calculated by the following calculation formula. Inhibition ratio=(Ec−Ea)/Ec×100 • Ec: measured value of Ca^2+ transient increase by RANTES • Ea: measured value of Ca^2+ transient increase by RANTES when a test compound was added.

T1 sequence (P51681 whole entry): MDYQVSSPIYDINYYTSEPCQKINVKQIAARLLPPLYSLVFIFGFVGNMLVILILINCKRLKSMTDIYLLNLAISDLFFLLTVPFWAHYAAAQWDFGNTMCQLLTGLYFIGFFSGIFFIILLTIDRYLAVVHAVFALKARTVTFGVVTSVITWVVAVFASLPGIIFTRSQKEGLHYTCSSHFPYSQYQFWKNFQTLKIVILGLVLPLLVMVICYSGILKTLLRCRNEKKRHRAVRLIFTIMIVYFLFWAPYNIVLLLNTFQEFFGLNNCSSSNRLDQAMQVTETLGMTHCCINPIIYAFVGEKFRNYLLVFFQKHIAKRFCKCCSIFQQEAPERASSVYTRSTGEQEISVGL

IC50: 10 nM
Compound: CCCCN1C(=O)[C@@H]([C@H](O)C(CC)CC)NC(=O)C12CCN(Cc1ccc(Cc3ccc(C(=O)NC)cc3Cl)cc1)CC2 [Example 3(179), (3R)-1-butyl-2,5-dioxo-3-((1R)-1-hydroxy-2-ethylbutyl)-9-(4-(4-methylaminocarbonyl-2-chlorophenylmethyl)phenylmethyl)-1,4,9-triazaspiro[5.5]undecane hydrochloride]
